The values below come from publication PMC6641592, “Deciphering Design Principles of Förster Resonance Energy Transfer-Based Protease Substrates: Thermolysin-Like Protease from Geobacillus stearothermophilus as a Test Case” (ACS Omega, 2018).

By Km is commonly meant the substrate concentration at which the rate is half of its maximum. What is called kcat/KM is the second-order rate constant that governs catalysis at low substrate concentration.

Where two headings read alike, the source gives them in different places. AF647 = Alexa Fluor 647 (maleimide); CF = 5,6-carboxyfluorescein; Cy5 = Cy5 (maleimide)

In series [1] the test system is CC(C)C[C@H](NC(=O)CNC(=O)C=Cc1ccco1)C(N)=O. Nature of the series: purified protein, by the assay type. The conditions noted are these: other: enzyme preparation TLP-ste (C288L/N181C).
The conditions of series [2]: after complete hydrolysis with 1 nM TLP-ste, >16 h room temperature; MOPS buffer, 10% DMSO; λex 450/λem 520 nm.
The target of series [3] is TLP-ste (C288L/N181C) (Geobacillus stearothermophilus, UniProt P06874, C520L/N413C). The settings on record: for Km / vmax: Michaelis-Menten fit, mean ± SD, triplicate; for vmax: MOPS pH 7.4, 10% DMSO; for kcat/KM: calculated from kcat and KM; for increase of kcat with peptide length: 8aa substrate relative to 4aa substrate with the same acceptor.
Series [4] concerns the target TLP-ste (Geobacillus stearothermophilus, UniProt P06874, C520L/N413C). The settings on record: product 0–20 μM; substrates 8aa-Cy5 and 8aa-AF647 0–2 μM; triplicate.
Series [5] addresses thermolysin-like protease (TLP-ste) from Geobacillus stearothermophilus, C288L/N181C (Geobacillus stearothermophilus).
Setting [6] is: corrected for IFE and FRET efficiency, 1 nM TLP-ste, 20 mM MOPS pH 7.4, 5 mM CaCl2, 10% DMSO, 30 °C, donor λex 490/λem 520 nm.
The mark [7] stands for this setting: corrected for IFE and FRET efficiency, 1 nM TLP-ste, 30 °C.
[8] abbreviates: corrected for IFE and FRET efficiency, vmax divided by enzyme concentration (1 nM).
The mark [9] stands for this setting: correction: FRET efficiency only.
The mark [10] stands for this setting: correction: FRET efficiency only, vmax divided by enzyme concentration.
[11] abbreviates: correction: IFE only, vmax divided by enzyme concentration.
The mark [12] stands for this setting: correction: none, vmax divided by enzyme concentration.

Take “TLP-ste (C288L/N181C) (Geobacillus stearothermophilus; C520L/N413C)”: in series [1], the Km worked out at 7000 µM and the kcat came out at 14 s^–1.
Turning to CF-PAGLAC(Cy5)-NH2 [4aa-Cy5], the “concentration of hydrolyzed peptide above which fluorescence plateaus or decreases (cleaved products form aggregates)” value in series [2] amounted to 2500 nM. The Km is 2.4 ± 1.9 µM in series [3] (setting [6]), 1.6 ± 1.3 µM in series [3] (setting [9]) and 1.6 ± 1.3 µM in series [3] (correction: none). Also, in series [3] (setting [7]), the vmax is 3.7 ± 1.6 ×10^–4 μM s^–1. The kcat came out at 0.37 s^–1 in series [3] (setting [8]), 0.28 s⁻¹ in series [3] (setting [10]), 0.35 s⁻¹ in series [3] (setting [11]) and 0.26 s⁻¹ in series [3] (setting [12]). Besides, the kcat/KM in series [3] (setting [9]) was 175000 M⁻¹ s⁻¹; in series [3] (correction: IFE only), 145800 M⁻¹ s⁻¹; in series [3] (correction: none) it was 162500 M⁻¹ s⁻¹.
On to “H-LAGGC(AF647)-NH2 [AF647-carrying product]”, for which the “relative activity of TLP-ste in the presence of product” value in series [4] is “relative activity decreases”.
For CF-PAGLAC(AF674)-NH2 [4aa-AF647], the Km was found to be 53.3 ± 33.9 µM in series [3] (setting [6]), 14.3 ± 4 µM in series [3] (setting [9]) and 14.3 ± 4 µM in series [3] (correction: none). Besides, in series [3] (setting [7]), the vmax is listed as 7.0 ± 3.8 ×10^–4 μM s^–1. In addition, the kcat in series [3] (setting [8]) was 0.70 s^–1; in series [3] (setting [10]), 0.20 s⁻¹; in series [3] (setting [11]), 0.69 s⁻¹; in series [3] (setting [12]) it was 0.19 s⁻¹. Further, the kcat/KM is 14000 M⁻¹ s⁻¹ in series [3] (setting [9]), 12900 M⁻¹ s⁻¹ in series [3] (correction: IFE only) and 13200 M⁻¹ s⁻¹ in series [3] (correction: none).
With CF-PVAGLAGC(Cy5)-NH2 [6aa-Cy5], the “concentration of hydrolyzed peptide above which fluorescence plateaus or decreases (cleaved products form aggregates)” value in series [2] came out at 2500 nM. For the same molecule, the Km in series [3] (setting [6]) amounted to 11.6 ± 13 µM; in series [3] (setting [9]), 6.9 ± 6.6 µM; in series [3] (correction: none) it was 6.9 ± 6.6 µM. Besides, the vmax in series [3] (setting [7]) was 29.6 ± 26.6 ×10^–4 μM s^–1. The kcat in series [3] (setting [8]) is 2.96 s^–1; in series [3] (setting [10]), 1.87 s⁻¹; in series [3] (setting [11]) it was 2.87 s⁻¹; in series [3] (setting [12]), 1.81 s⁻¹. Further, the specificity constant (kcat/KM) in series [3] (setting [9]) was 271000 M⁻¹ s⁻¹; in series [3] (correction: IFE only), 247400 M⁻¹ s⁻¹; in series [3] (correction: none) it was 262300 M⁻¹ s⁻¹.
For the molecule CF-PSVAGLAGGC(Cy5)-NH2 [8aa-Cy5], the “increase of kcat with peptide length” value in series [3] is 21 fold. For the same molecule, the results for the Km in series [3] (setting [6]), in series [3] (setting [9]) and in series [3] (correction: none) were 17.6 ± 11.1 µM, 8.2 ± 3.9 µM and 8.2 ± 3.9 µM, respectively. Moreover, the vmax in series [3] (setting [7]) is reported as 78.2 ± 48.2 ×10^–4 μM s^–1. The kcat is 7.82 s^–1 in series [3] (setting [8]), 3.73 s⁻¹ in series [3] (setting [10]), 7.50 s⁻¹ in series [3] (setting [11]) and 3.58 s⁻¹ in series [3] (setting [12]). Moreover, the kcat/KM in series [3] (setting [9]) was 454900 M⁻¹ s⁻¹; in series [3] (correction: IFE only), 426100 M⁻¹ s⁻¹; in series [3] (correction: none) it was 436600 M⁻¹ s⁻¹.
In the case of CF-PSVAGLAGGC(AF647)-NH2 [8aa-AF647], in series [3], the “increase of kcat with peptide length” value was 8 fold. The Km in series [3] (setting [6]) came out at 77.6 ± 38.5 µM; in series [3] (setting [9]) it was 17 ± 4.6 µM; in series [3] (correction: none), 17 ± 4.6 µM. Further, in series [3] (setting [7]), the vmax is on record as 57.0 ± 27.0 ×10^–4 μM s^–1. Besides, the kcat in series [3] (setting [8]) amounted to 5.70 s^–1; in series [3] (setting [10]) it was 1.29 s⁻¹; in series [3] (setting [11]), 5.47 s⁻¹; in series [3] (setting [12]) it was 1.24 s⁻¹. Also, the kcat/KM in series [3] (setting [9]) was 75900 M⁻¹ s⁻¹; in series [3] (correction: IFE only), 70500 M⁻¹ s⁻¹; in series [3] (correction: none), 72900 M⁻¹ s⁻¹.

B1: 4aa-AF647, CF-PAGLAC(AF647)-NH2 (peptide)
peptide: {CF}-PAGLAC(AF647)-NH2
On to B1, for which the KM of hydrolysis by 1 nM TLP-ste (Michaelis-Menten fit, donor fluorescence, corrected for IFE and FRET efficiency; 30 °C, MOPS pH 7.4, 10% DMSO) in series [5] stood at 53.3 μM.

B2: 6aa-Cy5, CF-PVAGLAGC(Cy5)-NH2 (peptide)
peptide: {CF}-PVAGLAGC(Cy5)-NH2
In the case of B2, the KM of hydrolysis by 1 nM TLP-ste (Michaelis-Menten fit, donor fluorescence, corrected for IFE and FRET efficiency; 30 °C, MOPS pH 7.4, 10% DMSO) in series [5] came out at 11.6 μM.

B3: 8aa-AF647, CF-…(AF647)-NH2 (peptide)
peptide: {CF}-PSVAGLAGGC(AF647)-NH2
Regarding B3, the KM of hydrolysis by 1 nM TLP-ste (Michaelis-Menten fit, donor fluorescence, corrected for IFE and FRET efficiency; 30 °C, MOPS pH 7.4, 10% DMSO) in series [5] was found to be 77.6 μM.

B4: 4aa-Cy5, CF-PAGLAC(Cy5)-NH2 (peptide)
peptide: {CF}-PAGLAC(Cy5)-NH2
Regarding B4, in series [5], the KM of hydrolysis by 1 nM TLP-ste (Michaelis-Menten fit, donor fluorescence, corrected for IFE and FRET efficiency; 30 °C, MOPS pH 7.4, 10% DMSO) came out at 2.4 μM.

B5: 8aa-Cy5, CF-…(Cy5)-NH2 (peptide)
peptide: {CF}-PSVAGLAGGC(Cy5)-NH2
On to B5, for which the KM of hydrolysis by 1 nM TLP-ste (Michaelis-Menten fit, donor fluorescence, corrected for IFE and FRET efficiency; 30 °C, MOPS pH 7.4, 10% DMSO) in series [5] was 17.6 μM.
